Assay results from patent US8465983B1, “Detection and delivery systems utilizing supported lipid bilayers” (priority 2005, dated 2013).

Assays:
[1] = test system: EPC lipid bilayer on porous silica beads; experiment: Suspension study: disruption of EPC bilayers on fluorescein-containing porous silica beads, release of dye into supernatant; type: biochemical
Protocol: Lipid coatings on beads were disrupted using 10% TRITON X-100 detergent. Each sample in micro-centrifuge tubes contained 5 mg of lipid bilayer coated, fluorescein entrapped beads in 200 μL of Tris buffer. Samples were centrifuged and 100 μL aliquots of supernatant were mixed with either 100 μL of Tris buffer or 100 μL of 10% TRITON X-100 detergent in separate centrifuge tubes. The fluorescence intensity of each mixture was immediately (time=0) recorded. Each mixture was mixed with its respective bead sample in centrifuge tube and incubated at 25° C. in the dark. After 30 min, samples were centrifuged and fluorescent intensity of the supernatants was measured. Beads were resuspended in their respective supernatants. Fluorescence intensity was again measured at 90 and 150 min.
Experimental procedures were similar to the TRITON X-100 detergent based analysis. For experiments with α-toxin, three different toxin concentrations: 15, 45 and 250 μg/mL were used at 37° C. and 25° C. Beads coated with EPC were used. In the experiments with melittin, 220 μM melittin was used with beads coated with either 100% EPC, 10:90 (molar ratio) mixture of DMPG and EPC or an 80:20 mixture of DMPG and DMPC. All melittin experiments were conducted at 25° C.
Previous suspension studies on disruption of lipid bilayers have been performed with small unilamellar vesicles where disruption of the lipid bilayer membranes was detected by monitoring the unquenching of a highly concentrated, encapsulated dye. In the present work disruption was monitored via release of fluorescein dye from porous beads, by measuring the increase in fluorescence intensity of the supernatant at 520 nm. Beads were first suspended in Tris buffer containing the disruptor. After selected time periods, beads were sedimented by centrifuging and a portion of the supernatant was taken for the measurement. The measured portion was added back to the bead sample to permit continuous monitoring. The scattering effect that was present in vesicle based studies was minimized by measuring only the supernatant after centrifugation of the beads.

[2] = test system: DMPG lipid bilayer supported on MS-PPE; experiment: Superquenching flow cytometric assay for disruption of DMPG lipid bilayer supported on MS-PPE; type: biochemical
Protocol: Lipid bilayers were disrupted by adding TRITON X-100 detergent to the bead suspension to a final concentration of 0.25% (w/v).
Bead suspensions of 2.5×10^5 DMPG-coated MS-PPE in 200 μL of PBS were analyzed using a FACScan flow cytometer (Becton-Dickinson, Sunnyvale, Calif.) with excitation at 488 nm. Fluorescence signals were acquired on FL-1 channel (525 nm) using log amplification and analyzed with the CellQuest software. Kinetic analysis of disruption of supported lipid bilayer by melittin was performed by acquiring real-time data with continuous mixing of samples (10^6 MS-PPE in 800 μl of PBS) using a magnetic stirrer. The raw data were analyzed using IDL Query software developed by Bruce Edwards (Cancer Center, University of New Mexico, Albuquerque, N. Mex.).
Because an anionic lipid was used to form a lipid bilayer around MS-PPE, it was expected that MLT will disrupt the DMPG lipid bilayer by such a detergent-like action. This was tested by adding 10 μM AQS to DMPG-coated MS-PPE followed by treatment with one of the following: TRITON X-100 detergent, synthetic MLT (sMLT), or natural MLT (nMLT) and immediately reading the fluorescence by flow cytometry. […] These histograms resemble the ones reported previously for MS-PPE, without a lipid coating, in absence and in presence of AQS.
From FIG. 18, the association constant (corresponding to the reciprocal of the point of half saturation) for nMLT and sMLT with DMPG were 5×10^6 M^−1 and 1.7×10^6 M^−1, respectively. […] Lower concentrations of nMLT, in comparison to sMLT, were required to disrupt the DMPG lipid bilayer. This might be attributed to the fact that nMLT contains some phospholipase A2 (PLA2) as a contaminant. PLA2 has a high affinity for anionic phospholipids, with an association constant of 0.5×10^10 M^−1 (Kim et al., Anal. Chem. 250, 109-116 (1997)), which is about 3000 fold higher than that of MLT. Although PLA2 activity requires calcium, which is not present in the experimental system, it has been reported that even upon addition of EDTA to natural MLT, PLA2 maintains its activity, probably due to formation of a tight complex with calcium with PLA2 (Dempsey, C. E. Biochim. Biophys. Acta 1990, 1031, 143-161).
The kinetics of disruption of supported lipid bilayer by MLT were monitored by measuring real-time changes in fluorescence intensity by flow cytometry (FIG. 19). Suspensions of 10^6 DMPG-coated MS-PPE in 800 μL of PBS were treated with AQS at a final concentration of 10 μM, then with either sMLT, TRITON X-100 detergent, or no treatment. […] Treatment with sMLT in the absence of AQS led to an increase in normalized fluorescence (FIG. 19, trace A). This can be attributed to disruption of the lipid bilayer by sMLT, and is consistent with a reversal of the slight quenching of fluorescence caused by the formation of a DMPG lipid bilayer over MS-PPE. Addition of AQS alone to DMPG-coated MS-PPE (FIG. 19, trace C) led to a 20% reduction in fluorescence as reported earlier. Addition of TRITON X-100 detergent to DMPG-coated MS-PPE after the addition of AQS (first dip in trace E, FIG. 19) caused immediate decrease in fluorescence to ˜10% of its original value (second dip in trace E, FIG. 19). In contrast, addition of sMLT, after the addition of AQS, (FIG. 19, trace D) led to a gradual reduction of fluorescence intensity to ˜20% of the original value. Although MLT forms dimers at high concentrations (Dempsey, C. E. Biochim. Biophys. Acta 1990, 1031, 143-161), it is monomeric at the concentrations used in this study. On the other hand, TRITON X-100 detergent forms micelles at the concentration used in this study.

## TRITON X-100
[1]; 10% TRITON X-100, first 30 min, 25° C.
  increase in fluorescence intensity of the supernatant: more than 70 fold
[1]; TRITON X-100 added after 150 min exposure to α-toxin
  increase in fluorescence intensity (total disruption of bilayers): 50 fold
[2]; 0.25% (w/v) TRITON X-100, 10 μM AQS, Example 2
  fluorescence after disruption of the lipid bilayer, % of the original fluorescence value: ~10%
[2]; 0.25% (w/v) TRITON X-100, 10 μM AQS, Example 3
  fluorescence after disruption, % of the fluorescence of DMPG-coated MS-PPE in the absence of quencher: ~18%
[2]; 10^6 DMPG-coated MS-PPE in 800 μL PBS, after 10 μM AQS
  fluorescence intensity after addition, % of original value (real-time kinetics): ~10%
